In publication doi:10.1101/2025.09.24.678246 (bioRxiv, 2025):
Values after ≈ are worked out from the molar mass of the structure shown. Values joined by “and” are separate entries in the source; they are usually repeats but may differ in a detail not shown here. Equal entries are not always repeated. Where two headings read alike, the source gives them in different places.

Columns and labels:
HepG2 = settings: for Growth compared to DMSO control (%): HepG2 cell
M. africanum = assay: MIC screening against M. africanum; type: cell-based; settings: Mycobacterium tuberculosis, MTBC
K. pneumoniae ATCC 43816 = assay: MIC screening against Gram-negative pathogens: K. pneumoniae
Protocol: (§1) MIC measurements were based on a method previously described[6]. Overnight liquid cultures of E. coli BW, E. coli C0244, A. baumannii ATCC 17978, K. pneumoniae ATCC 43816, P. aeruginosa PA01 and E. faecium ATCC 19434 strains were inoculated with a single colony from a freshly streaked agar plate of the corresponding bacterial strain and cultured in M9 minimal medium supplemented with amino acids[6]. The bacterial culture was prepared by washing 1 mL of overnight culture in PBS pH 7.4 (x3), then diluted to OD600 = 0.5 and used to inoculate 1:1000 in M9 minimal medium with amino acids in 96-well plates. Compounds were added to 96-well plates in two-fold serial dilutions. The plates were incubated stationary at 37 °C for 18 h, then OD600 was measured. […] The assay was performed in duplicate.

M. bovis 0AF2122 = assay: microbe, parasite or virus in culture; type: cell-based; settings: Mycobacterium tuberculosis variant bovis
E. coli = assay: MIC screening against Gram-negative pathogens: E. coli
Protocol: as §1

Mtb H37Rv [1] = assay: microbe, parasite or virus in culture; type: cell-based, Mycobacterium tuberculosis; settings: Mycobacterium tuberculosis, H37RV; biotin-free medium
Mtb H37Rv [2] = assay: Supplementation experiments in Mtb (KAPA, DAPA, DTB, biotin); type: cell-based, Mycobacterium tuberculosis
[3] = test system: ESKAPE panel of pathogens; assay: MIC screening against the ESKAPE panel (summary)
Protocol: as §1

[4] = p.o.; for C48 in Plasma / C48 in lung: CD-1 mice
WT H37Rv = assay: Time-kill kinetics in GAST medium; type: cell-based, Mycobacterium tuberculosis; settings: for OD580 of C48 kill kinetics: 10µM C48, GAST medium

In the case of `O=C1CCc2cc(N3CCN(C(=O)c4ccc(F)c(Br)c4)CC3)ncc21` [C48], the “therapeutic index (IC50/MIC50)” value (HepG2; HepG2 and HT-29 versus Mtb) was “greater than 10,000”, the “Growth compared to DMSO control (%)” value (HepG2; 3.13 μM, 48 h) was 106.559% and 101.297% and 106.056% and the “Growth compared to DMSO control (%)” value (HepG2; 6.25 μM, 48 h) was 105.369% and 100.246%. For the same compound, the “Growth compared to DMSO control (%)” value (HepG2; 12.5 μM, 48 h) was 104.304% and 99.8833%, the “Growth compared to DMSO control (%)” value (HepG2; 25 μM, 48 h) was 105.369% and 101.144% and the “Growth compared to DMSO control (%)” value (HepG2; 50 μM, 48 h) was 106.056% and 100.625% and 106.559%. The “Growth compared to DMSO control (%)” value (HepG2; 100 μM, 48 h) was 110.419% and 100.81% and 101.702%, the “cytotoxicity toward HepG2” value (HepG2; concentrations up to 100 μM, 48 h) was “no cytotoxicity” and the MIC (M. africanum) was 0.012 µM (≈ 0.00502 µg/mL). For the same compound, the “plasma concentration, dose escalation” value (50 mg/kg p.o. for 4 days, 1 hr) was 61800 and 52800 and 56400, the “plasma concentration, dose escalation” value (50 mg/kg p.o. for 4 days, 24 hr) was 12.4 and 12.1 and 9.65 and the “plasma concentration, dose escalation” value (100 mg/kg p.o. for 4 days, 0 hr) was 14 and 10 and 13. The “plasma concentration, dose escalation” value (100 mg/kg p.o. for 4 days, 1 hr) was 112000 and 72300 and 72800, the “plasma concentration, dose escalation” value (200 mg/kg p.o. for 4 days, 0 hr) was 16 and 17 and 26 and the “plasma concentration, dose escalation” value (200 mg/kg p.o. for 4 days, 1 hr) was 74500 and 50900 and 86400. The “plasma concentration, dose escalation” value (200 mg/kg p.o. for 4 days, 5 hr) was 57700 and 39600 and 50300, the “tolerability in dose escalation” value (p.o. 50-200 mg/kg for 4 days) was “well tolerated” and the “oral absorption in dose escalation” value (p.o. up to 200 mg/kg) was “linear oral absorption”. For the same compound, the MIC (K. pneumoniae ATCC 43816) was “inactive”, the MIC (M. bovis 0AF2122) was 0.0313 µM (≈ 0.0131 µg/mL) and the MIC (E. coli; E. coli BW) was “inactive”. The MIC (E. coli; E. coli C0244) was “inactive”, the MIC50 (Mtb H37Rv [1]) was 0.093 µM (≈ 0.0389 µg/mL) and the “activity against Mtb cultured with 40 nM biotin” value (Mtb H37Rv [2]; 40 nM biotin) was “minimal activity”. For the same compound, the “growth inhibitory effect with biotin supplementation” value (Mtb H37Rv [2]; 2 μM biotin, GAST) was “antagonized”, the “growth inhibitory effect with DAPA supplementation” value (Mtb H37Rv [2]; 50 μM DAPA, GAST) was “antagonized” and the “growth inhibitory effect with desthiobiotin (DTB) supplementation” value (Mtb H37Rv [2]; 50 μM DTB, GAST) was “antagonized”. The “growth inhibitory effect with KAPA supplementation” value (Mtb H37Rv [2]; 50 μM KAPA, GAST) was “not”, the “activity against the entire ESKAPE panel” value [3] was “inactive” and the “delivery into the lungs” value [4] was “efficiently delivered into the lungs”. For the same compound, the “C48 in Plasma” value ([4]; 0 hr) was 0 ng/mL, the C48 in lung ([4]; 0 hr) was 0 ng/mL and the “C48 in Plasma” value ([4]; 1 hr) was 17400 ng/mL and 12000 ng/mL and 17900 ng/mL. The C48 in lung ([4]; 1 hr) was 11264.6 ng/mL and 8012.8 ng/mL and 9904.4 ng/mL, the “C48 in Plasma” value ([4]; 3 hr) was 7710 ng/mL and 11800 ng/mL and 12100 ng/mL and the C48 in lung ([4]; 3 hr) was 3273.1 ng/mL and 5600.4 ng/mL and 5866.1 ng/mL. For the same compound, the “rate of CFU decline” value (WT H37Rv; 10 μM, biotin-free medium, after about three doublings) was “one log10 CFU per week”, the “OD580 of C48 kill kinetics” value (WT H37Rv; day 0) was 0.001 and the “OD580 of C48 kill kinetics” value (WT H37Rv; day 2) was 0.004. The “OD580 of C48 kill kinetics” value (WT H37Rv; day 4) was 0.008, the “OD580 of C48 kill kinetics” value (WT H37Rv; day 8) was 0.01 and the “OD580 of C48 kill kinetics” value (WT H37Rv; day 11) was 0.016. For the same compound, the “OD580 of C48 kill kinetics” value (WT H37Rv; day 14) was 0.012, the “OD580 of C48 kill kinetics” value (WT H37Rv; day 16) was 0.012 and the “OD580 of C48 kill kinetics” value (WT H37Rv; day 18) was 0.012. For the same compound, the “OD580 of C48 kill kinetics” value (WT H37Rv; day 21) was 0.01, the “OD580 of C48 kill kinetics” value (WT H37Rv; day 23) was 0.01 and the “OD580 of C48 kill kinetics” value (WT H37Rv; day 25) was 0.01. The “OD580 of C48 kill kinetics” value (WT H37Rv; day 28) was 0.008, the “OD580 of C48 kill kinetics” value (WT H37Rv; day 32) was 0.008 and the “OD580 of C48 kill kinetics” value (WT H37Rv; day 35) was 0.008. The “OD580 of C48 kill kinetics” value (WT H37Rv; day 39) was 0.008, the “OD580 of C48 kill kinetics” value (WT H37Rv; day 42) was 0.008 and the “OD580 of C48 kill kinetics” value (WT H37Rv; day 46) was 0.008. For the same compound, the “OD580 of C48 kill kinetics” value (WT H37Rv; day 49) was 0.008, the “OD580 of C48 kill kinetics” value (WT H37Rv; day 53) was 0.008 and the “OD580 of C48 kill kinetics” value (WT H37Rv; day 56) was 0.008.
